Experimental data from ChEMBL document CHEMBL1201862, “PubChem BioAssay data set” (2004).
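Growth conditions: 96-well plates. Treatment: test compound, 48 hours, 5 concentrations. Analysis: linear interpolation between bracketing concentrations; unreached endpoints set to highest concentration. Abbreviation: GI50, concentration required for 50% inhibition of growth.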 Active and inactive are the calls of the source. Cut-off read from the data, not from the text of the source: active = GI50 up to about 1.1 µM and inactive = higher.

Assays:
Assay in all cases: inhibition of tumour cell growth, NCI panel, 48 h
A498 = tested on: A498
CAKI-1 = tested on: CAKI-1
COLO 205 = tested on: COLO 205
DU-145 = tested on: DU-145
HCC 2998 = tested on: HCC 2998
HCT-116 = tested on: HCT-116
Hs-578T = tested on: Hs-578T
IGROV-1 = tested on: IGROV-1
KM12 = tested on: KM12
MDA-MB-435 = tested on: MDA-MB-435
MOLT-4 = tested on: MOLT-4
Malme-3M = tested on: Malme-3M
NCI-H460 = tested on: NCI-H460
OVCAR-8 = tested on: OVCAR-8
RXF 393 = tested on: RXF 393
SF-539 = tested on: SF-539
SK-OV-3 = tested on: SK-OV-3
SN12C = tested on: SN12C
SNB-19 = tested on: SNB-19
SW-620 = tested on: SW-620

Compound: C=CCN1CN(C2CCCCC2)CSC1=S
- GI50 (A498): 14.3 µM (inactive)
- GI50 (CAKI-1): 4.72 µM (inactive)
- GI50 (COLO 205): 3.32 µM (inactive)
- GI50 (DU-145): 2.23 µM (inactive)
- GI50 (HCC 2998): 8.17 µM (inactive)
- GI50 (HCT-116): 1.55 µM (inactive)
- GI50 (Hs-578T): 4.94 µM (inactive)
- GI50 (IGROV-1): 8.34 µM (inactive)
- GI50 (KM12): 3.19 µM (inactive)
- GI50 (MDA-MB-435): 0.944 µM (active)
- GI50 (MOLT-4): 1.11 µM (active)
- GI50 (Malme-3M): 3.16 µM (inactive)
- GI50 (NCI-H460): 4.12 µM (inactive)
- GI50 (OVCAR-8): 4.06 µM (inactive)
- GI50 (RXF 393): 4.04 µM (inactive)
- GI50 (SF-539): 1.36 µM (inactive)
- GI50 (SK-OV-3): 14.4 µM (inactive)
- GI50 (SN12C): 6.84 µM (inactive)
- GI50 (SNB-19): 16.9 µM (inactive)
- GI50 (SW-620): 0.733 µM (active)

Compound: C[C@@]12C[C@@H](c3ccccc3O1)N1CCCCSC1=N2
- GI50 (A498): > 100 µM (inactive)
- GI50 (CAKI-1): > 100 µM (inactive)
- GI50 (COLO 205): > 100 µM (inactive)
- GI50 (DU-145): > 100 µM (inactive)
- GI50 (HCC 2998): > 100 µM (inactive)
- GI50 (HCT-116): > 100 µM (inactive)
- GI50 (Hs-578T): > 100 µM (inactive)
- GI50 (IGROV-1): > 100 µM (inactive)
- GI50 (KM12): > 100 µM (inactive)
- GI50 (MDA-MB-435): > 100 µM (inactive)
- GI50 (MOLT-4): > 100 µM (inactive)
- GI50 (Malme-3M): > 100 µM (inactive)
- GI50 (NCI-H460): > 100 µM (inactive)
- GI50 (OVCAR-8): > 100 µM (inactive)
- GI50 (RXF 393): > 100 µM (inactive)
- GI50 (SF-539): > 100 µM (inactive)
- GI50 (SK-OV-3): > 100 µM (inactive)
- GI50 (SN12C): > 100 µM (inactive)
- GI50 (SNB-19): > 100 µM (inactive)
- GI50 (SW-620): > 100 µM (inactive)

Compound: CCOC(=O)c1c(C)n(-c2ccc(C)cc2)c2c1cc(O)c1[nH]c3c(c12)CCCC3
- GI50 (A498): 13.9 µM (inactive)
- GI50 (CAKI-1): 27.9 µM (inactive)
- GI50 (COLO 205): 25.6 µM (inactive)
- GI50 (DU-145): 12.8 µM (inactive)
- GI50 (HCC 2998): 14.6 µM (inactive)
- GI50 (HCT-116): 21.8 µM (inactive)
- GI50 (Hs-578T): < 0.01 µM (active)
- GI50 (IGROV-1): 13.8 µM (inactive)
- GI50 (KM12): 16.7 µM (inactive)
- GI50 (MDA-MB-435): 20.1 µM (inactive)
- GI50 (MOLT-4): 8.77 µM (inactive)
- GI50 (Malme-3M): 17.7 µM (inactive)
- GI50 (NCI-H460): 24.8 µM (inactive)
- GI50 (OVCAR-8): 22.4 µM (inactive)
- GI50 (RXF 393): 12 µM (inactive)
- GI50 (SF-539): 15.7 µM (inactive)
- GI50 (SK-OV-3): 87.3 µM (inactive)
- GI50 (SN12C): 27.5 µM (inactive)
- GI50 (SNB-19): 19.4 µM (inactive)
- GI50 (SW-620): 17.6 µM (inactive)

Compound: CNc1ccc(Cl)cc1C(=O)N1CCC[C@H]1CO
- GI50 (A498): > 100 µM (inactive)
- GI50 (CAKI-1): > 100 µM (inactive)
- GI50 (COLO 205): > 100 µM (inactive)
- GI50 (DU-145): > 100 µM (inactive)
- GI50 (HCC 2998): > 100 µM (inactive)
- GI50 (HCT-116): > 100 µM (inactive)
- GI50 (Hs-578T): > 100 µM (inactive)
- GI50 (IGROV-1): > 84.7 µM (inactive)
- GI50 (KM12): > 100 µM (inactive)
- GI50 (MDA-MB-435): > 100 µM (inactive)
- GI50 (MOLT-4): > 100 µM (inactive)
- GI50 (Malme-3M): > 100 µM (inactive)
- GI50 (NCI-H460): > 100 µM (inactive)
- GI50 (OVCAR-8): > 100 µM (inactive)
- GI50 (RXF 393): > 100 µM (inactive)
- GI50 (SF-539): > 100 µM (inactive)
- GI50 (SK-OV-3): > 100 µM (inactive)
- GI50 (SN12C): > 100 µM (inactive)
- GI50 (SNB-19): > 100 µM (inactive)
- GI50 (SW-620): > 100 µM (inactive)

Compound: CCN(CC)c1ncnc2c1ncn2CCNC(CO)(CO)CO
- GI50 (A498): > 100 µM (inactive)
- GI50 (CAKI-1): > 100 µM (inactive)
- GI50 (COLO 205): > 100 µM (inactive)
- GI50 (DU-145): > 100 µM (inactive)
- GI50 (HCC 2998): > 100 µM (inactive)
- GI50 (HCT-116): > 100 µM (inactive)
- GI50 (Hs-578T): > 100 µM (inactive)
- GI50 (IGROV-1): > 100 µM (inactive)
- GI50 (KM12): > 100 µM (inactive)
- GI50 (MDA-MB-435): > 100 µM (inactive)
- GI50 (MOLT-4): > 100 µM (inactive)
- GI50 (Malme-3M): > 100 µM (inactive)
- GI50 (NCI-H460): > 100 µM (inactive)
- GI50 (OVCAR-8): > 100 µM (inactive)
- GI50 (RXF 393): > 100 µM (inactive)
- GI50 (SF-539): > 100 µM (inactive)
- GI50 (SK-OV-3): > 100 µM (inactive)
- GI50 (SN12C): > 100 µM (inactive)
- GI50 (SNB-19): > 100 µM (inactive)
- GI50 (SW-620): > 100 µM (inactive)

Compound: Oc1cccc2ccc(Br)nc12
- GI50 (A498): > 100 µM (inactive)
- GI50 (CAKI-1): > 100 µM (inactive)
- GI50 (COLO 205): > 100 µM (inactive)
- GI50 (DU-145): > 100 µM (inactive)
- GI50 (HCC 2998): 63 µM (inactive)
- GI50 (HCT-116): > 100 µM (inactive)
- GI50 (Hs-578T): > 100 µM (inactive)
- GI50 (IGROV-1): > 100 µM (inactive)
- GI50 (KM12): > 100 µM (inactive)
- GI50 (MDA-MB-435): > 100 µM (inactive)
- GI50 (MOLT-4): > 100 µM (inactive)
- GI50 (Malme-3M): > 100 µM (inactive)
- GI50 (NCI-H460): > 100 µM (inactive)
- GI50 (OVCAR-8): > 100 µM (inactive)
- GI50 (RXF 393): > 100 µM (inactive)
- GI50 (SF-539): > 100 µM (inactive)
- GI50 (SK-OV-3): > 100 µM (inactive)
- GI50 (SN12C): > 100 µM (inactive)
- GI50 (SNB-19): > 100 µM (inactive)
- GI50 (SW-620): > 100 µM (inactive)
